# Source: patent US8735361B2, “C1ORF59 peptides and vaccines including the same” (Oncotherapy Science, Inc., priority 2008, dated 2014)
# Experiments:
# peptide-pulsed A24 LCL [1] = test: IFN-gamma ELISA assay of CTL clones established by limiting dilution (HLA-A*2402); assay type: cell-based, human; conditions: CTL clones against target cells pulsed with peptide
# Experimental: The dilutions were made to have 0.3, 1, and 3 CTLs/well in 96 round-bottomed micro titer plate (Nalge Nunc International). CTLs were cultured with 1×10^4 cells/well of 2 kinds of human B-lymphoblastoid cell lines, 30 ng/ml of anti-CD3 antibody, and 125 U/ml of IL-2 in a total of 150 microlitter/well of AIM-V Medium containing 5% AS. 50 microlitter/well of IL-2 were added to the medium 10 days later so to reach a final concentration of 125 U/ml IL-2. CTL activity was tested on the 14th day, and CTL clones were expanded using the same method as described above (Uchida N et al., Clin Cancer Res 2004 Dec. 15, 10(24): 8577-86; Suda T et al., Cancer Sci 2006 May, 97(5): 411-9; Watanabe T et al., Cancer Sci 2005 August, 96(8): 498-506).
# (§1) To examine specific CTL activity, interferon (IFN)-gamma enzyme-linked immunospot (ELISPOT) assay and IFN-gamma enzyme-linked immunosorbent assay (ELISA) were performed. Specifically, peptide-pulsed A24 LCL (1×10^4/well) was prepared as stimulator cells. Cultured cells in 48 wells were used as responder cells. IFN-gamma ELISPOT assay and IFN-gamma ELISA assay were performed under manufacture procedure.
# peptide-pulsed A24 LCL [2] = test: In vitro CTL induction with HLA-A*2402 restricted peptides, IFN-gamma ELISPOT assay; assay type: cell-based, human; conditions: CTLs from HLA-A*2402 positive donor stimulated with peptide-pulsed DCs; compared to control wells
# Text: Monocyte-derived dendritic cells (DCs) were used as antigen-presenting cells (APCs) to induce cytotoxic T lymphocyte (CTL) responses against peptides presented on human leukocyte antigen (HLA). DCs were generated in vitro as described elsewhere (Nakahara S et al., Cancer Res 2003 Jul. 15, 63(14): 4112-8). Specifically, peripheral blood mononuclear cells (PBMCs) isolated from a normal volunteer (HLA-A*2402 positive) by Ficoll-Plaque (Pharmacia) solution were separated by adherence to a plastic tissue culture dish (Becton Dickinson) so as to enrich them as the monocyte fraction. The monocyte-enriched population was cultured in the presence of 1000 U/ml of granulocyte-macrophage colony-stimulating factor (GM-CSF) (R&D System) and 1000 U/ml of interleukin (IL)-4 (R&D System) in AIM-V Medium (Invitrogen) containing 2% heat-inactivated autologous serum (AS). After 7 days of culture, the cytokine-induced DCs were pulsed with 20 micro gram/ml of each of the synthesized peptides in the presence of 3 micro gram/ml of beta 2-microglobulin for 3 hrs at 37 degrees C. in AIM-V Medium. The generated cells appeared to express DC-associated molecules, such as CD80, CD83, CD86 and HLA class II, on their cell surfaces (data not shown). These peptide-pulsed DCs were then inactivated by X-irradiated (20 Gy) and mixed at a 1:20 ratio with autologous CD8+ T cells, obtained by positive selection with CD8 Positive Isolation Kit (Dynal). These cultures were set up in 48-well plates (Corning); each well contained 1.5×10^4 peptide-pulsed DCs, 3×10^5 CD8+ T cells and 10 ng/ml of IL-7 (R&D System) in 0.5 ml of AIM-V/2% AS medium. Three days later, these cultures were supplemented with IL-2 (CHIRON) to a final concentration of 20 IU/ml. On day 7 and 14, the T cells were further stimulated with the autologous peptide-pulsed DCs. The DCs were prepared each time by the same way described above. CTL was tested against peptide-pulsed A24 LCL or T2 cells after the 3rd round of peptide stimulation on day 21 (Tanaka H et al., Br J Cancer 2001 Jan. 5, 84(1): 94-9; Umano Y et al., Br J Cancer 2001 Apr. 20, 84(8): 1052-7; Uchida N et al., Clin Cancer Res 2004 Dec. 15, 10(24): 8577-86; Suda T et al., Cancer Sci 2006 May, 97(5): 411-9; Watanabe T et al., Cancer Sci 2005 August, 96(8): 498-506)
# as §1
# [3] = test system: COS7 cells transfected with C1orf59 and HLA-A*2402; test: Specific CTL activity against target cells exogenously expressing C1orf59 and HLA-A*2402; assay type: cell-based, African green monkey
# Text: The cDNA encoding an open reading frame of target genes or HLA-A24 was amplified by PCR. The PCR-amplified product was cloned into pCAGGS vector. The plasmids were transfected into COS7, which is the target genes and HLA-A24-null cell line, using lipofectamine 2000 (Invitrogen) according to the manufacturer's recommended procedures. After 2 days from transfection, the transfected cells were harvested with versene (Invitrogen) and used as the target cells (5×10^4 cells/well) for CTL activity assay.
# The established CTL lines raised against these peptides were examined for their ability to recognize target cells that express C1orf59 and HLA-A*2402 molecule. Specific CTL activity against COS7 cells which transfected with both the full length of C1orf59 and HLA-A*2402 molecule gene (a specific model for the target cells that express C1orf59 and HLA-A*2402 gene) was tested using the CTL lines raised by corresponding peptide as the effecter cells. COS7 cells transfected with either full length of C1orf59 genes or HLA-A*2402 were prepared as control.
# peptide-pulsed A24 LCL [4] = test: IFN-gamma ELISA assay of expanded CTL lines (HLA-A*2402); assay type: cell-based, human; conditions: target cells pulsed with corresponding peptide compared to target cells without peptide pulse
# Experimental: CTLs were expanded in culture using the method similar to the one described by Riddell et al. (Walter E A et al., N Engl J Med 1995 Oct. 19, 333(16): 1038-44; Riddell S R et al., Nat Med 1996 February, 2(2): 216-23). A total of 5×10^4 CTLs were suspended in 25 ml of AIM-V/5% AS medium with 2 kinds of human B-lymphoblastoid cell lines, inactivated by MMC, in the presence of 40 ng/ml of anti-CD3 monoclonal antibody (Pharmingen). One day after initiating the cultures, 120 IU/ml of IL-2 were added to the cultures. The cultures were fed with fresh AIM-V/5% AS medium containing 30 IU/ml of IL-2 on days 5, 8 and 11 (Tanaka H et al., Br J Cancer 2001 Jan. 5, 84(1): 94-9; Umano Y et al., Br J Cancer 2001 Apr. 20, 84(8): 1052-7; Uchida N et al., Clin Cancer Res 2004 Dec. 15, 10(24): 8577-86; Suda T et al., Cancer Sci 2006 May, 97(5): 411-9; Watanabe T et al., Cancer Sci 2005 August, 96(8): 498-506).
# as §1
sequence,measurement,setting,value
GYCTQIGIF [SEQ ID NO: 26],IFN-gamma production of CTL clones by ELISA,peptide-pulsed A24 LCL [1],Potent IFN-gamma productions
same,"Peptide specific CTL activity, IFN-gamma production by ELISPOT",peptide-pulsed A24 LCL [2],potent IFN-gamma production
same,Specific CTL activity against control COS7 cells,[3]; COS7 transfected with either full length C1orf59 or HLA-A*2402 alone,no significant specific CTL activity
same,Specific CTL activity against COS7 cells expressing both C1orf59 and HLA-A*2402,[3]; CTLs raised by the peptide as effector cells,potent CTL activity
same,IFN-gamma production of CTL lines by ELISA,peptide-pulsed A24 LCL [4],potent IFN-gamma production
